Data on one substance can be found in patent publication US20010034328A1, “Treatment of male chronic pelvic pain syndrome” (priority 2000, published 2001).

Series [1] relates to terminally ill cancer patients. The settings on record: approximately 900-2100 mg/day for up to 8 months; twenty-one patients; cited from earlier work.
In series [2] the test system is male subjects having a clinical diagnosis of chronic pelvic pain syndrome. Briefly: treatment of male subjects with chronic pelvic pain syndrome with 600-900 mg per day. Format: in vivo, human. The settings on record: 600, 700, 800 or 900 mg per day orally, up to sixteen weeks or more. How it is done:
Utilizing capsules prepared as above and 100 mg capsules available from ALZA Corporation as appropriate to meet the daily dosing requirements, male subjects having a clinical diagnosis of chronic pelvic pain syndrome are treated with 600, 700, 800 or 900 mg per day of pentosan polysulfate sodium for up to sixteen weeks, generally 1-2 weeks, 2-4 weeks, 4-8 weeks, 8-16 weeks or up to 32 weeks or more. The daily doses may be administered in multiple doses, generally three times per day with each dose containing equal amounts of pentosan polysulfate. As examples, the daily 600 mg dose may be administered as two 300 mg capsules of pentosan polysulfate as described herein in the morning and evening, or as three 200 mg doses (two 100 mg capsules) in the morning, at mid-day and in the evening. Typically, administration is in the non-fed mode with subjects receiving the doses either at least one hour before a meal or at least two hours after a meal. Daily 900 mg doses may be administered as three 300 mg capsules in the morning, at mid-day and in the evening. As with the 600 mg daily dose, administration typically is in the non-fed mode with subjects receiving the doses either at least one hour before a meal or at least two hours after a meal. […]

The conditions of series [3]: cited from earlier work.
The subject of series [4] is male subjects exhibiting signs and symptoms of Category III prostatitis. The note with it: 200 mg bid, cited from earlier work.

For pentosan polysulfate, in series [1], the “patients who experienced some degree of bleeding from the rectum or digestive tract” value is listed as “Twenty”. In addition, the “relief of intensity and frequency of symptoms (pain, frequency and urgency of urination, nocturia, ejaculatory pain, impotence)” value in series [2] is “can experience relief”. Also, the oral bioavailability result in series [3] was “approximately 3%”. The median measurement score entry in series [4] (after 3 months of treatment, compared with placebo) is recorded as “lowered to a greater extent than the placebo group”. In series [4] (after 3 months of treatment), the “difference between the treatment group and the placebo group” value is reported as “no evident difference”. For the same substance, in series [4] (treatment group), the symptoms of myalgia/arthralgia result is recorded as “some improvement”.
